Literature values, collected in US20130137781A1, “PHARMACEUTICAL PREPARATION FOR CONTROLLING WATER-SOLUBLE DRUG RELEASE” (priority 2010, published 2013).

Tests used:
[1] = common logarithm of n-octanol/water partition coefficient

| Compound | Log P [1] | thermal stability in solution state |
| --- | --- | --- |
| N[C@@H](Cc1ccccc1)C(=O)O [L-phenylalanine] | −1.5 |  |
| N[C@H](C(=O)O)[C@H](O)c1ccc(O)c(O)c1 [droxidopa] | −3.2 | thermally unstable in solution state |
| NS(=O)(=O)Cc1noc2ccccc12 [zonisamide] | 0.2 |  |
